Assay results: PubChem BioAssay (NCI)
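Growth conditions: 96-well plates. Treatment: test compound, 48 hours, 5 concentrations. Analysis: linear interpolation between bracketing concentrations; unreached endpoints set to highest concentration. The concentration for full growth arrest is given as TGI.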

What was measured:
Experiment in all cases: inhibition of tumour cell growth, NCI panel, 48 h
[1] = system: DU-145 prostate
[2] = system: PC-3 prostate
[3] = system: SK-OV-3 ovarian
[4] = system: MDA-MB-435
[5] = system: KM12 colon
[6] = system: SK-MEL-28 melanoma
[7] = system: LOX IMVI melanoma
[8] = system: SF-295 CNS
[9] = system: SF-268 CNS
[10] = system: OVCAR-3 ovarian
[11] = system: HL-60(TB) leukemia
[12] = system: OVCAR-5 ovarian
[13] = system: HOP-92 NSCLC
[14] = system: UACC-257 melanoma
[15] = system: MCF7 breast
[16] = system: T-47D breast
[17] = system: OVCAR-8 ovarian
[18] = system: NCI-H226 lung
[19] = system: SK-MEL-2 melanoma
[20] = system: EKVX NSCLC
[21] = system: A549 NSCLC
[22] = system: SW-620 colon
[23] = system: 786-0 renal
[24] = system: NCI-H23 lung
[25] = system: NCI/ADR-RES ovarian
[26] = system: RXF 393 renal
[27] = system: A498 renal
[28] = system: NCI-H522 lung
[29] = system: COLO 205 colon
[30] = system: UACC-62 melanoma
[31] = system: SNB-75 CNS
[32] = system: BT-549 breast
[33] = system: U251 CNS
[34] = system: SR leukemia
[35] = system: TK-10 renal
[36] = system: MOLT-4 leukemia
[37] = system: MDA-MB-231 breast
[38] = system: UO-31 renal
[39] = system: HOP-62 NSCLC
[40] = system: IGROV1 ovarian
[41] = system: HS 578T breast
[42] = system: ACHN renal
[43] = system: MALME-3M melanoma
[44] = system: MDA-N
[45] = system: CAKI-1 renal
[46] = system: SK-MEL-5 melanoma
[47] = system: HCT-116 colon
[48] = system: M14 melanoma
[49] = system: SN12C renal
[50] = system: RPMI-8226 leukemia
[51] = system: HT29 colon
[52] = system: OVCAR-4 ovarian
[53] = system: SF-539 CNS
[54] = system: CCRF-CEM leukemia
[55] = system: HCT-15 colon
[56] = system: NCI-H460 lung
[57] = system: SNB-19 CNS
[58] = system: K-562 leukemia

## CN(C)CCNc1ccc(NCC[N+](C)(C)Cc2ccc([N+](=O)[O-])cc2)c2c1C(=O)c1ccccc1C2=O
[1]
  TGI: > 25 µM
[2]
  TGI: > 25 µM
[3]
  TGI: > 25 µM
[4]
  TGI: > 25 µM
[5]
  TGI: > 25 µM
[6]
  TGI: > 25 µM
[7]
  TGI: > 25 µM
[8]
  TGI: > 25 µM
[9]
  TGI: > 25 µM
[10]
  TGI: > 25 µM
[11]
  TGI: 13.6 µM
[12]
  TGI: > 25 µM
[13]
  TGI: > 25 µM
[14]
  TGI: > 25 µM
[15]
  TGI: > 25 µM
[16]
  TGI: > 25 µM
[17]
  TGI: > 25 µM
[18]
  TGI: > 25 µM
[19]
  TGI: > 25 µM
[20]
  TGI: > 25 µM
[21]
  TGI: > 25 µM
[22]
  TGI: > 25 µM
[23]
  TGI: > 25 µM
[24]
  TGI: > 25 µM
[25]
  TGI: > 25 µM
[26]
  TGI: > 25 µM
[27]
  TGI: > 25 µM
[28]
  TGI: > 25 µM
[29]
  TGI: > 25 µM
[30]
  TGI: > 25 µM
[31]
  TGI: > 25 µM
[32]
  TGI: > 25 µM
[33]
  TGI: > 25 µM
[34]
  TGI: > 25 µM
[35]
  TGI: > 25 µM
[36]
  TGI: > 25 µM
[37]
  TGI: > 25 µM
[38]
  TGI: > 25 µM
[39]
  TGI: > 25 µM
[40]
  TGI: > 25 µM
[41]
  TGI: > 25 µM
[42]
  TGI: > 25 µM
[43]
  TGI: > 25 µM
[44]
  TGI: > 25 µM
[45]
  TGI: > 25 µM
[46]
  TGI: > 25 µM
[47]
  TGI: > 25 µM
[48]
  TGI: > 25 µM
[49]
  TGI: > 25 µM
[50]
  TGI: > 25 µM
[51]
  TGI: > 25 µM

## CC(=O)OC1CCC2(C)C(CCC3C4CC=C(C5(C)OCCO5)C4(C)CCC32)C1 (centres undefined)
[52]
  TGI: 61 µM
[1]
  TGI: > 100 µM
[2]
  TGI: 54.2 µM
[3]
  TGI: > 100 µM
[4]
  TGI: 47.9 µM
[5]
  TGI: 67.4 µM
[6]
  TGI: 43 µM
[7]
  TGI: 32.8 µM
[8]
  TGI: 57.2 µM
[9]
  TGI: > 100 µM
[10]
  TGI: 44 µM
[11]
  TGI: 48.8 µM
[12]
  TGI: 44.7 µM
[14]
  TGI: 40.2 µM
[53]
  TGI: 42.7 µM
[15]
  TGI: 53.9 µM
[16]
  TGI: > 100 µM
[17]
  TGI: 48.8 µM
[18]
  TGI: 66.8 µM
[19]
  TGI: 37.4 µM
[20]
  TGI: 44.1 µM
[21]
  TGI: > 100 µM
[22]
  TGI: 45.6 µM
[23]
  TGI: 77.4 µM
[24]
  TGI: 66.6 µM
[25]
  TGI: 46 µM
[26]
  TGI: 40.3 µM
[27]
  TGI: 61.8 µM
[54]
  TGI: 38.4 µM
[29]
  TGI: 32.9 µM
[55]
  TGI: 80.6 µM
[30]
  TGI: 53.1 µM
[56]
  TGI: 47.8 µM
[31]
  TGI: 73.7 µM
[32]
  TGI: 45.8 µM
[33]
  TGI: 39.4 µM
[34]
  TGI: 54.2 µM
[35]
  TGI: > 100 µM
[36]
  TGI: 65.5 µM
[37]
  TGI: > 100 µM
[38]
  TGI: 62 µM
[39]
  TGI: 44.1 µM
[40]
  TGI: 70.4 µM
[57]
  TGI: > 100 µM
[41]
  TGI: 60.1 µM
[42]
  TGI: > 100 µM
[43]
  TGI: 53.4 µM
[44]
  TGI: 44 µM
[45]
  TGI: > 100 µM
[46]
  TGI: 28.9 µM
[47]
  TGI: 45.3 µM
[48]
  TGI: 52.8 µM
[49]
  TGI: 44.4 µM
[50]
  TGI: 34.1 µM
[51]
  TGI: 38.3 µM
[58]
  TGI: > 100 µM

## OCCCNCc1ccncc1
[52]
  TGI: > 100 µM
[1]
  TGI: > 100 µM
[2]
  TGI: > 100 µM
[3]
  TGI: > 100 µM
[4]
  TGI: > 100 µM
[5]
  TGI: > 100 µM
[6]
  TGI: > 100 µM
[7]
  TGI: > 100 µM
[8]
  TGI: > 100 µM
[9]
  TGI: > 100 µM
[10]
  TGI: > 100 µM
[11]
  TGI: > 100 µM
[12]
  TGI: > 100 µM
[13]
  TGI: > 100 µM
[53]
  TGI: > 100 µM
[15]
  TGI: > 100 µM
[16]
  TGI: > 100 µM
[17]
  TGI: > 100 µM
[18]
  TGI: > 100 µM
[19]
  TGI: > 100 µM
[20]
  TGI: > 100 µM
[21]
  TGI: > 100 µM
[22]
  TGI: > 100 µM
[23]
  TGI: > 100 µM
[24]
  TGI: > 100 µM
[25]
  TGI: > 100 µM
[26]
  TGI: > 100 µM
[27]
  TGI: > 100 µM
[54]
  TGI: > 100 µM
[28]
  TGI: > 100 µM
[29]
  TGI: > 100 µM
[55]
  TGI: > 100 µM
[30]
  TGI: > 100 µM
[56]
  TGI: > 100 µM
[31]
  TGI: > 100 µM
[32]
  TGI: > 100 µM
[33]
  TGI: > 100 µM
[34]
  TGI: > 100 µM
[35]
  TGI: > 100 µM
[36]
  TGI: > 100 µM
[37]
  TGI: > 100 µM
[38]
  TGI: > 100 µM
[39]
  TGI: > 100 µM
[40]
  TGI: > 100 µM
[57]
  TGI: > 100 µM
[41]
  TGI: > 100 µM
[42]
  TGI: > 100 µM
[43]
  TGI: > 100 µM
[44]
  TGI: > 100 µM
[45]
  TGI: > 100 µM
[46]
  TGI: > 100 µM
[47]
  TGI: > 100 µM
[48]
  TGI: > 100 µM
[49]
  TGI: > 100 µM
[50]
  TGI: > 100 µM
[51]
  TGI: > 100 µM
[58]
  TGI: > 100 µM
